Each structure is given as a SMILES string. A value given as a limit tells only on which side of the number the result lay.

Data set [1] addresses Sodium-dependent dopamine transporter (Homo sapiens, UniProt Q01959). Put plainly: Displacement of radioligand from human recombinant DAT expressed in HEK293 cells by scintillation proximity assay. It counts as cell-based. On the technique in general: SPA uses beads or plates that emit light when radiolabelled molecules are held near them.
Data set [2] concerns the target Sodium-dependent serotonin transporter (Homo sapiens, UniProt P31645). Put plainly: Displacement of [3H]citalopram from human recombinant SERT expressed in HEK293 cells by scintillation proximity assay. It counts as cell-based. In general terms: Displacement assays read how much labelled ligand stays bound in the presence of the test substance.
Data set [3] has as its target Sodium-dependent noradrenaline transporter (Homo sapiens, UniProt P23975). Put plainly: Displacement of [3H]nisoxetine from human recombinant NET expressed in HEK293 cells by scintillation proximity assay. It counts as cell-based.
The target in data set [4] is Voltage-gated inwardly rectifying potassium channel KCNH2 (Homo sapiens, UniProt Q12809). Put plainly: Displacement of [3H]dofetilide from human ERG.
Voltage-gated inwardly rectifying potassium channel KCNH2, sequence (Q12809 whole entry): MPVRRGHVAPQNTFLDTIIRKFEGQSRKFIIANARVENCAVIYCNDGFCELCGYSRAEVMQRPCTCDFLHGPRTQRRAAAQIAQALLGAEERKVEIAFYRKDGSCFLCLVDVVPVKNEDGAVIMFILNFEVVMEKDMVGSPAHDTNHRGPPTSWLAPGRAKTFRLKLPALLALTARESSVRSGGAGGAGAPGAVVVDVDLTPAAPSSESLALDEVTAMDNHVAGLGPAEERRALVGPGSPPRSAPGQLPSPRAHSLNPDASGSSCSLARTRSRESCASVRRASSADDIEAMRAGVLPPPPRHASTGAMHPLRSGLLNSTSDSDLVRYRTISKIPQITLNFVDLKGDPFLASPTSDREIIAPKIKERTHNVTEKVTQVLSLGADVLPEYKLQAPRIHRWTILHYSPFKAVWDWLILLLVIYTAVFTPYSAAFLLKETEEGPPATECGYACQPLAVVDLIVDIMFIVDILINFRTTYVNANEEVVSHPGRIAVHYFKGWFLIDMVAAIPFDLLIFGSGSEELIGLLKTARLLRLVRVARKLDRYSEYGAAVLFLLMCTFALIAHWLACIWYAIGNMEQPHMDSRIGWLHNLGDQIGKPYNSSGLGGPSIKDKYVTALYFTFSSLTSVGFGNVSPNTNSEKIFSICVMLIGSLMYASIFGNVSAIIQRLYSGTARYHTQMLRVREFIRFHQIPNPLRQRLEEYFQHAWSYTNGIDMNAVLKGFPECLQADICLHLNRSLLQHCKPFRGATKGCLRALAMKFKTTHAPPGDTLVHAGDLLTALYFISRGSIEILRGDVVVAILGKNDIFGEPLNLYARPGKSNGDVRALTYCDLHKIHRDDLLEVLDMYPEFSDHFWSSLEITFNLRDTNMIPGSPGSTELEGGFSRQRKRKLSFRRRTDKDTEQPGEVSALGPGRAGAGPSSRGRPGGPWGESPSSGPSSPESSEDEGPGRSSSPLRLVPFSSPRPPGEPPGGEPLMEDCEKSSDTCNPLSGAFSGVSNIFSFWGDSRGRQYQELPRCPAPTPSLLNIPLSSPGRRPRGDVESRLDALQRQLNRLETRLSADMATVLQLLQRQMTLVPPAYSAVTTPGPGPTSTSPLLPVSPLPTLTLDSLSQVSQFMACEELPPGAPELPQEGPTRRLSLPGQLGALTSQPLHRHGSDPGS
A short description of data set [5]: Intrinsic clearance in human liver microsomes. It counts as ADME, Microsome. (In general: Microsomes from liver hold many membrane-bound enzymes, among them those of drug oxidation.)
The target in a further data set is Cytochrome P450 2D6 (Homo sapiens, UniProt P10635). Put plainly: Inhibition of CYP2D6. It counts as ADME.
Cytochrome P450 2D6, sequence (P10635 whole entry): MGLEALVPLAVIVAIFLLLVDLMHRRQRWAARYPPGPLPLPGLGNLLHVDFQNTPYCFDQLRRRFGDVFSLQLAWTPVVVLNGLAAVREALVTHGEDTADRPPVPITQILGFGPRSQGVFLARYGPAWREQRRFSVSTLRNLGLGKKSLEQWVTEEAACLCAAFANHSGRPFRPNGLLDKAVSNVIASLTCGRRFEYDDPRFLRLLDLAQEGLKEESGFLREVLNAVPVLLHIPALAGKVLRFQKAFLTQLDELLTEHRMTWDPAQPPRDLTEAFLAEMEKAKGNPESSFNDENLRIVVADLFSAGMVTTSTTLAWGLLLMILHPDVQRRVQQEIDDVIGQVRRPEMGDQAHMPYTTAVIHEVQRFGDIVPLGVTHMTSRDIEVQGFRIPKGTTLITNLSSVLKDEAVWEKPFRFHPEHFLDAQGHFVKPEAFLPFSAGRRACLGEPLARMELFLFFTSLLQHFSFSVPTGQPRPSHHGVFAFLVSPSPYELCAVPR

Sodium-dependent noradrenaline transporter, sequence (P23975 whole entry): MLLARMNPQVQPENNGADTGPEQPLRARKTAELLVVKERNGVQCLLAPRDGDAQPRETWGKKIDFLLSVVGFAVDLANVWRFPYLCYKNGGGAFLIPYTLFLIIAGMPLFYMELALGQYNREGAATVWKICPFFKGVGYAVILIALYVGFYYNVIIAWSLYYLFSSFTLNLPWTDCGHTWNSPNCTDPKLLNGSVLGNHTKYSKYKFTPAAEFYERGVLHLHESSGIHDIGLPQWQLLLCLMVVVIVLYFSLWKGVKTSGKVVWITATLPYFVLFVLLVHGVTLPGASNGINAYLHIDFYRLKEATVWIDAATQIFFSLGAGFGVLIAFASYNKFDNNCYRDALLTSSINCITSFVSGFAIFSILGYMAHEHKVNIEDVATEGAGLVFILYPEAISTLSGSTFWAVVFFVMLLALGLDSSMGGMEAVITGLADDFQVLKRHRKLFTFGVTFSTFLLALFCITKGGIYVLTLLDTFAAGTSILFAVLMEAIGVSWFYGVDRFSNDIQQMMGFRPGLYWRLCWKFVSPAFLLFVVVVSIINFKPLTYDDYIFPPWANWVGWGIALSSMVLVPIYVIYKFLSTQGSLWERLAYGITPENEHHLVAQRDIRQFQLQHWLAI
Sodium-dependent dopamine transporter, sequence (Q01959 whole entry): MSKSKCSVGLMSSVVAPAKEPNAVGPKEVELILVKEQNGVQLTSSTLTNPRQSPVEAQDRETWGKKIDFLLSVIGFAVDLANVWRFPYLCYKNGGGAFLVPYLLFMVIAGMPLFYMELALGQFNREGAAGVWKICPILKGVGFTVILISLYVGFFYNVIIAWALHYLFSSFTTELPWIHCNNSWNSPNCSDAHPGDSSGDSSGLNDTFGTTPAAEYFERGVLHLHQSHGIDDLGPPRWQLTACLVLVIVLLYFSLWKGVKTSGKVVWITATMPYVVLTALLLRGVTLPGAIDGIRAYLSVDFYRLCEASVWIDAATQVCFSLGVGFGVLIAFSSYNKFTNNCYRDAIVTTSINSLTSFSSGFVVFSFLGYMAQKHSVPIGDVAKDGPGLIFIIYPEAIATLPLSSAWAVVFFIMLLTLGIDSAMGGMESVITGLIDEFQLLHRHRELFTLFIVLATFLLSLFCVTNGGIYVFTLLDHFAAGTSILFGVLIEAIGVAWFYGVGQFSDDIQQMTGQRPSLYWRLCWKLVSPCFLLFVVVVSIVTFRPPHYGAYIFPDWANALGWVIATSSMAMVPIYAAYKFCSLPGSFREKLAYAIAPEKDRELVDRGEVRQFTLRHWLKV
Sodium-dependent serotonin transporter, sequence (P31645 whole entry): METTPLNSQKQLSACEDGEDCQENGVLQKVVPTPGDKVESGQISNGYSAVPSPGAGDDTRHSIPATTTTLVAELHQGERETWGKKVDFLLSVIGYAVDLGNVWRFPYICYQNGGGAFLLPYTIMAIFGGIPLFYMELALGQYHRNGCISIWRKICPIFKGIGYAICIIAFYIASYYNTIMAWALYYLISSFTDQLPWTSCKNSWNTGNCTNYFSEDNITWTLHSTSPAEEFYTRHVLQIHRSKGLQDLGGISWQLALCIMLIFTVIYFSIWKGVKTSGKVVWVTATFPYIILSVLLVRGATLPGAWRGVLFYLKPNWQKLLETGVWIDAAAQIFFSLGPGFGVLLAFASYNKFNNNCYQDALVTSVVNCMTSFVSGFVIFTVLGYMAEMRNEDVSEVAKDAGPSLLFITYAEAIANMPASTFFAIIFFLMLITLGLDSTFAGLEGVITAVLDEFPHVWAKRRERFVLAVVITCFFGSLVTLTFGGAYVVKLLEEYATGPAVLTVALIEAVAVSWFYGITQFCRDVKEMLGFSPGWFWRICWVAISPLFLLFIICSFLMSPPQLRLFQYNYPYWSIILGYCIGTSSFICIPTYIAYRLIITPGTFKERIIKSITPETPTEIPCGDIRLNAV

As a reminder, the Ki is a measure of affinity in units of concentration, obtained from inhibition or displacement. `CCc1ccccc1C(=O)N(CC1CCC1)[C@H]1CCNC1`: the Ki in data set [1] is 2680 nM; in data set [2], 237 nM; in data set [3], 29 nM.

`CC(C)c1ccccc1C(=O)N(CC1CCC1)[C@@H]1CCNC1`: the figures for the Ki in data set [1], in data set [2] and in data set [3] were greater than 3160 nM, 1990 nM and 825 nM, respectively.

For the molecule `CC(C)c1ccccc1C(=O)N(C1CCCC1)[C@H]1CCNC1`, the Ki in data set [1] is greater than 10000 nM; in data set [2], 663 nM; in data set [3], 32 nM.

As usually defined, the IC50 is the point on the concentration scale where inhibition reaches its midpoint. High values mean lower potency, low ones higher potency. For `O=C(c1ccccc1C(F)(F)F)N(CC1CC1)[C@H]1CCNC1`, the values for the Ki in data set [1], in data set [2] and in data set [3] were greater than 10000 nM, 581 nM and 30 nM, respectively. For the same molecule, the IC50 in data set [4] was greater than 20000 nM.

In general, microsomal CLint refers to the rate of metabolic loss divided by the concentration. The molecule `CCOC(=O)N(Cc1ccccc1-c1ccccc1)[C@H]1CCNC1` yielded a microsomal CLint in data set [5] of less than 7 µL/min/mg.

As to `CC(C)c1ccccc1C(=O)N(CC1CCCC1)[C@H]1CCNC1`, the figures for the Ki in data set [1], in data set [2] and in data set [3] were 3470 nM, 330 nM and 18 nM, respectively. The IC50 in data set [4] turned out to be 2350 nM.

For `O=C(c1ccccc1C(F)(F)F)N(CC1CCCC1)[C@H]1CCNC1`, the Ki in data set [1] is 2750 nM; in data set [2] it was 109 nM; in data set [3], 24 nM. The molecule also displayed an IC50 in data set [4] greater than 13500 nM. The same molecule yielded a microsomal CLint in data set [5] of less than 7 µL/min/mg.

As to `O=C(c1ccccc1Oc1ccccc1)N(c1ccccc1)[C@H]1CCNC1`, the Ki in data set [1] was determined as 4650 nM; in data set [2], 68 nM. The intrinsic clearance (microsomal CLint) in data set [5] is less than 7 µL/min/mg.

In the case of `O=C(c1ccccc1C(F)(F)F)N(c1ccccc1)[C@H]1CCNC1`, the Ki in data set [1] came to 3130 nM; in data set [2] it was 113 nM; in data set [3], 28 nM. Moreover, the figures for the IC50 (in data set [4]; on Cytochrome P450 2D6) were greater than 20000 nM and greater than 3000 nM, respectively. The molecule further gave an intrinsic clearance (microsomal CLint) in data set [5] of less than 7 µL/min/mg.

Regarding `CCSc1ccccc1C(=O)N(CC1CCC1)[C@H]1CCNC1`, the Ki worked out at 3670 nM in data set [1], 266 nM in data set [2] and 6 nM in data set [3]. Also, the IC50 in data set [4] was 7570 nM; on Cytochrome P450 2D6, 480 nM. Besides, the microsomal CLint in data set [5] was determined as 8 µL/min/mg.

In the case of `CSc1ccccc1C(=O)N(C1CCC1)[C@H]1CCNC1`, the Ki in data set [1] is greater than 10000 nM; in data set [2], 62 nM; in data set [3] it was 16 nM. Besides, the IC50 is greater than 20000 nM in data set [4] and greater than 30000 nM on Cytochrome P450 2D6. Besides, the microsomal CLint in data set [5] was less than 7 µL/min/mg.

On to `CC(C)N(C(=O)c1ccccc1C(F)(F)F)[C@H]1CCNC1`, for which the Ki in data set [1] was greater than 10000 nM; in data set [2], 457 nM; in data set [3], 172 nM. In data set [4], this molecule gave an IC50 greater than 20000 nM.

Consider `CSc1ccccc1C(=O)N(CC1CCC1)[C@@H]1CCNC1`, for which the Ki turned out to be 3470 nM in data set [1], 1080 nM in data set [2] and 572 nM in data set [3].

As to `O=C(c1ccccc1C(F)(F)F)N(CC1CCC1)[C@@H]1CCNC1`, the Ki was 3960 nM in data set [1], 1650 nM in data set [2] and 1120 nM in data set [3].

Regarding `O=C(C1CCC1)N(Cc1ccccc1C(F)(F)F)[C@H]1CCNC1`, the Ki in data set [1] was greater than 10000 nM; in data set [2], 187 nM; in data set [3], 148 nM. For the same molecule, the microsomal CLint in data set [5] was less than 7 µL/min/mg.

Take `O=C(c1ccccc1Oc1ccccc1)N(CC1CCC1)[C@H]1CCNC1`: the Ki in data set [1] was greater than 10000 nM; in data set [2], 151 nM; in data set [3], 7 nM. Besides, the IC50 in data set [4] worked out at 760 nM; on Cytochrome P450 2D6 it was 65 nM. Besides, in data set [5], the microsomal CLint is less than 7 µL/min/mg.

Consider `Cc1ccccc1C(=O)N(CC1CCC1)[C@H]1CCNC1`, for which the inhibitory constant (Ki) is 2340 nM in data set [1], 118 nM in data set [2] and 72 nM in data set [3]. The IC50 in data set [4] was greater than 20000 nM.

For `CCOc1ccccc1C(=O)N(CC1CCC1)[C@H]1CCNC1`, the figures for the Ki in data set [1], in data set [2] and in data set [3] were 2650 nM, 348 nM and 22 nM, respectively. Further, the IC50 in data set [4] is greater than 16800 nM. The same molecule showed a microsomal CLint in data set [5] of less than 7 µL/min/mg.

`CCCN(C(=O)c1ccccc1C(C)C)[C@H]1CCNC1`: the Ki in data set [1] is greater than 10000 nM; in data set [2], 5210 nM; in data set [3], 92 nM.

As for `O=C(c1ccccc1C1CCCC1)N(CC1CCC1)[C@H]1CCNC1`, the figures for the Ki in data set [1], in data set [2] and in data set [3] were 3720 nM, 802 nM and 18 nM, respectively. This molecule displayed a microsomal CLint in data set [5] of 60 µL/min/mg.

Consider `CSc1ccccc1C(=O)N(CC1CCC1)[C@H]1CCNC1`, for which the inhibitory constant (Ki) in data set [1] was 3040 nM; in data set [2] it was 179 nM; in data set [3], 8 nM. Also, in data set [4], the IC50 is greater than 20000 nM. In data set [5], this molecule displayed a microsomal CLint of less than 7 µL/min/mg.

Turning to `CC(C)c1ccccc1C(=O)N(C1CCC1)[C@H]1CCNC1`, the Ki in data set [1] is greater than 10000 nM; in data set [2], 776 nM; in data set [3], 43 nM.

Consider `CSc1ccccc1C(=O)N(C1CCCC1)[C@H]1CCNC1`, for which the Ki turned out to be 4770 nM in data set [1], 36 nM in data set [2] and 9 nM in data set [3]. In addition, in data set [4], the IC50 is greater than 18700 nM.

For the molecule `CC(C)c1ccccc1C(=O)N(CC1CC1)[C@H]1CCNC1`, the Ki in data set [1] is greater than 10000 nM; in data set [2], 2870 nM; in data set [3], 31 nM. Moreover, the IC50 in data set [4] was greater than 17600 nM.

Regarding `CN(C(=O)c1ccccc1Oc1ccccc1)[C@H]1CCNC1`, the Ki in data set [1] was greater than 3160 nM; in data set [2], 661 nM; in data set [3], 61 nM. In data set [4], this molecule returned an IC50 of 9210 nM.

Turning to `O=C(c1ccccc1Oc1ccccc1)N(C1CCC1)[C@H]1CCNC1`, the Ki was greater than 10000 nM in data set [1], 222 nM in data set [2] and 13 nM in data set [3]. The molecule also gave an intrinsic clearance (microsomal CLint) in data set [5] of less than 7 µL/min/mg.

Consider `O=C(c1ccccc1Cl)N(CC1CCC1)[C@H]1CCNC1`, for which the Ki came to 1360 nM in data set [1], 39 nM in data set [2] and 19 nM in data set [3].

With `CCCN(C(=O)c1ccccc1SC)[C@H]1CCNC1`, the figures for the Ki in data set [1], in data set [2] and in data set [3] were 3110 nM, 1090 nM and 37 nM, respectively. The IC50 in data set [4] was greater than 20000 nM.

Molecule `CC(C)C(=O)N(Cc1ccccc1-c1ccccc1)[C@H]1CCNC1` had an IC50 in data set [4] of 3020 nM.

In the case of `CC(C)CN(C(=O)c1ccccc1Oc1ccccc1)[C@H]1CCNC1`, the Ki in data set [1] is greater than 10000 nM; in data set [2], 160 nM; in data set [3] it was 8 nM. In data set [5], this molecule registered a microsomal CLint of less than 7 µL/min/mg.

In the case of `CNCc1cnc(C)cc1Oc1ccccc1Oc1ccccc1`, in data set [4], the half-maximal inhibitory concentration (IC50) was 11200 nM. In data set [5], this molecule had a microsomal CLint of less than 7 µL/min/mg.

As for `O=C(c1ccccc1Oc1ccccc1)N(CC1CCC1)[C@@H]1CCNC1`, the Ki worked out at 4100 nM in data set [1], 587 nM in data set [2] and 38 nM in data set [3]. In data set [5], the microsomal CLint is less than 8 µL/min/mg.

`CSc1ccccc1C(=O)N(c1ccccc1)[C@H]1CCNC1`: the Ki in data set [1] was 3440 nM; in data set [2] it was 64 nM; in data set [3], 19 nM. In data set [4], this molecule had an IC50 greater than 20000 nM.

Consider `CC(C)CN(C(=O)c1ccccc1-c1ccccc1)[C@H]1CCNC1`, for which the inhibitory constant (Ki) in data set [1] is greater than 10000 nM; in data set [2], 654 nM; in data set [3], 294 nM. The IC50 in data set [4] was found to be 1440 nM.

For the molecule `CSc1ccccc1C(=O)N(C1CCCCC1)[C@H]1CCNC1`, the values for the inhibition constant Ki in data set [1] and in data set [2] were 2950 nM and 16 nM, respectively. The molecule further came in with an IC50 in data set [4] of 2270 nM.

Regarding `O=C(c1ccccc1C(F)(F)F)N(C1CCC1)[C@H]1CCNC1`, the Ki is greater than 10000 nM in data set [1], 210 nM in data set [2] and 60 nM in data set [3]. The molecule also showed an IC50 in data set [4] greater than 10000 nM. Besides, in data set [5], the intrinsic metabolic clearance (microsomal CLint) was less than 7 µL/min/mg.
